Measurements as given in ChEMBL document CHEMBL5390311, “MAIP: An Open-Source Tool to Enrich High-Throughput Screening Output and Identify Novel, Druglike Molecules with Antimalarial Activity” (ACS Med Chem Lett, 2023).
In brackets after ≈: the same amount, converted by molar mass. Blank lines part the entries; values can stand above or below the compound they belong to.

What was measured:
[1] = tested on: Plasmodium falciparum; assay: Antimalarial activity against Plasmodium falciparum NF54 assessed as parasite growth inhibition at 2 uM relative to control; assay type: functional; conditions: read-out: GI
[2] = Octanol/water partition coefficient, logP of the compound; assay type: physicochemical
[3] = tested on: Plasmodium falciparum; assay: Antimalarial activity against Plasmodium falciparum 3D7 assessed as reduction in parasite growth; assay type: functional, organism-based
[4] = Kinetic solubility of compound in 1-Octanol/PBS at pH 7.4 at 200 uM incubated for 2 hrs by shake flask method; assay type: physicochemical; conditions: read-out: Kinetic_solubility

logP [2]: 2.5
Structure (SMILES): O=C(NC1CCN(CCOc2ccc(Cl)cc2)CC1)c1c[nH]c2ccncc2c1=O

solubility kinetic at 2 h, 200 µM [4]: 200 µM (≈ 66.9 µg/mL)
logP ([2]; read-out: logP): 3.2
Structure (SMILES): c1ccc(-c2ccnc(C3CCN(CC45CNCC4C5)CC3)n2)cc1 (stereo unspecified)

logP ([2]; read-out: logP): 3.6
Structure (SMILES): Cc1c(CN2CCC(O)(Cn3ccnc3)CC2)[nH]c2c(Cl)cccc12

logP ([2]; read-out: logP): 3
Structure (SMILES): Cc1cnccc1N1CCCN(Cc2ccccc2OCCN2CCN(C)CC2)CC1

Continued, compound first:

Structure (SMILES): COc1ccc(CN2CCN(c3ccncc3C)CC2)cc1Cn1cccn1
inhibition of growth at 2 µM [1]: -15%

Structure (SMILES): COc1c(C2CCN(CCN3CCC(CNC(=O)c4ccc(-c5ccc(C#N)cc5)cc4)CC3)CC2)ccc2c1CCCC2
XC50 [3]: 0.445 µM

Structure (SMILES): CN1CCC(Oc2ccc(NC(=O)c3cn4ccnc4s3)cn2)CC1
solubility kinetic at 2 h, 200 µM [4]: 200 µM (≈ 71.5 µg/mL)
logP ([2]; read-out: logP): 2

Structure (SMILES): CN1CCN(CCCCNC2CC3CCC(C2)N3Cc2ccccc2)CC1 (stereo unspecified)
solubility kinetic at 2 h, 200 µM [4]: 200 µM (≈ 74.1 µg/mL)
logP ([2]; read-out: logP): 3.1

Structure (SMILES): OC1(CCCNC2CCN(C3CC3)C(c3ccccc3)C2)CCC1 (stereo unspecified)
inhibition of growth at 2 µM [1]: -8%

Structure (SMILES): Oc1cc(CN2CCC(O)(Cn3ccnc3)CC2)nc2c(Cl)cccc12
XC50 [3]: 0.882 µM

Structure (SMILES): CC1(N2CCC2)CCC(NCC2CCN(Cc3ccccc3)C2)CC1 (stereo unspecified)
logP ([2]; read-out: logP): 3.4

Structure (SMILES): COc1ccc(-c2cncc(C(=O)NCC3CCN(CCN(C)C)CC3)c2)cc1
logP ([2]; read-out: logP): 2.8

Structure (SMILES): CC1CCN(Cc2cccc(C(=O)NCc3ccc(F)c(-c4ccc(CN5CCN[C@H](C)C5)cc4)c3)c2)CC1
XC50 [3]: 1.46 µM
